# Reference: US10478482B2, “Vaccines for prevention and treatment of tuberculosis” (ALARUM DEVELOPMENT LTD, priority 2011, dated 2019)
# Columns and labels:
# [1] = tested on: serum from patients with TB; assay: Antibody recognition of peptides by serum from patients with TB; type: binding, human; conditions: for Average int. / N. of slide (frequency of recognition): serum from the group TB; for N. of slide (frequency of recognition): out of 9 individuals
# Text: (§1) Serum was obtained from patients with sarcoidosis (FIG. 4A) and from patients with TB (FIG. 4B). The number indicate the frequency of recognition, e.g. 1/9 individuals up to 9/9 individuals. The listed peptides are only listed if they are present in one group (sarcoidosis versus tuberculosis) and if the peptide is never recognized in any serum from the respective control group. […] Strong IgG response requires strong T-cell help which lends support that these antigens are also recognized by T-cells.
# [2] = tested on: serum from patients with sarcoidosis; assay: Antibody recognition of peptides by serum from patients with sarcoidosis; type: binding, human; conditions: for Average int. / N. of slide (frequency of recognition): serum from the group sarcoidosis; for N. of slide (frequency of recognition): out of 9 individuals
# Text: as §1
# PBMCs = type: cell-based, monkey
# [3] = tested on: IFNγ production in freshly harvested Heparin-blood; type: cell-based, human
# peritoneal macrophages = assay: Cytokine induction in peritoneal macrophages; type: cell-based, mouse; conditions: FIG. 10
Substance,Average int. [1],N. of slide (frequency of recognition) [1],Average int. [2],N. of slide (frequency of recognition) [2],further results
AAGNNVTVFGYSQSA [CAE55427-PPE family protein_289],0.4545,6,–,–,–
APALMDVEAAYEQMW [CAE55281-PPE family protein_133],–,–,1.6787,9,–
AWVSRGAHKLVGALE [CAB10951-cytotoxin haemolysin homologue TLYA_61],0.7175,7,–,–,–
GGGNTGSGNIGNGNK [CAE55613-PPE family protein_193],–,–,1.2266,9,–
GLYQVVPGIYQVRGF [CAA18084-possible hydrolase_85],0.5432,8,–,–,–
GSSAMILAAYHPQQF [CAB10044-secreted antigen 85-B FBPB (85B)A_169],–,–,0.6077,9,–
LSGDNQQGFNFAGGW [CAE55276-PPE family protein_1117],–,–,1.6435,9,–
MTAPVWLASPPEVHS [CAE55538-PPE family protein_1],0.8461,8,–,–,–
NANFGGGNGSAFHGQ [CAE55320-PPE family protein_205],–,–,1.4131,9,–
NTGSYNMGDFNPGSS [CAE55416-PPE family protein_385],0.9479,7,–,–,–
Possible glycosyltransferase [CAB05419/Rv2957],–,–,–,–,"recognition by serum from the group TB (in words) [1]: most frequently recognized; intracellular cytokines, here represented by IL-2 (PBMCs): Detection of intracellular cytokines; antigen-specific T-cell responses (IFNγ) [3]: can be detected; induction of IL-10 (peritoneal macrophages): little induction; induction of IL-12 (peritoneal macrophages): Strong induction; induction of TGF-β (peritoneal macrophages): Strong induction; induction of TN-Fa (peritoneal macrophages): little induction; recognition by serum from the group sarcoidosis (in words) [2]: never"
QWILHMAKLSAAMAK [CAA17973-conserved hypothetical alanine and_193],0.4333,6,–,–,–
SSGKPGRDPEAGRYG [CAB02482-probable lipase lipe_385],–,–,1.3190,9,–
TRLGIRLVIVLVRRW [CAB05419-possible glycosyl transferase_241],0.9264,9,–,–,–
VIGGIGPIHVQPIDI [CAE55585-PPE family protein_865],–,–,0.7433,9,–
